The record followed here is ChEMBL document CHEMBL2216754, “Discovery of Imidazoquinolines with Toll-Like Receptor 7/8 Independent Cytokine Induction” (ACS Med Chem Lett, 2012).

A value given as a limit tells only on which side of the number the result lay.

By EC50 is commonly meant the concentration needed to bring the measured effect to its halfway point.

A short description of experiment [1]: Immunomodulatory activity in C57BL/6 mouse BMDC assessed as IL-10 production at 30 uM after 3 days by FACS flow cytometric analysis (reference value: 16.2 +/- 4.7 pg/mL). The class given is functional. For orientation: A flow cytometer gives signals particle by particle.
In experiment [2] the target is T1, Toll-like receptor 7 (Homo sapiens, UniProt Q9NYK1).
T1 sequence (Q9NYK1 whole entry): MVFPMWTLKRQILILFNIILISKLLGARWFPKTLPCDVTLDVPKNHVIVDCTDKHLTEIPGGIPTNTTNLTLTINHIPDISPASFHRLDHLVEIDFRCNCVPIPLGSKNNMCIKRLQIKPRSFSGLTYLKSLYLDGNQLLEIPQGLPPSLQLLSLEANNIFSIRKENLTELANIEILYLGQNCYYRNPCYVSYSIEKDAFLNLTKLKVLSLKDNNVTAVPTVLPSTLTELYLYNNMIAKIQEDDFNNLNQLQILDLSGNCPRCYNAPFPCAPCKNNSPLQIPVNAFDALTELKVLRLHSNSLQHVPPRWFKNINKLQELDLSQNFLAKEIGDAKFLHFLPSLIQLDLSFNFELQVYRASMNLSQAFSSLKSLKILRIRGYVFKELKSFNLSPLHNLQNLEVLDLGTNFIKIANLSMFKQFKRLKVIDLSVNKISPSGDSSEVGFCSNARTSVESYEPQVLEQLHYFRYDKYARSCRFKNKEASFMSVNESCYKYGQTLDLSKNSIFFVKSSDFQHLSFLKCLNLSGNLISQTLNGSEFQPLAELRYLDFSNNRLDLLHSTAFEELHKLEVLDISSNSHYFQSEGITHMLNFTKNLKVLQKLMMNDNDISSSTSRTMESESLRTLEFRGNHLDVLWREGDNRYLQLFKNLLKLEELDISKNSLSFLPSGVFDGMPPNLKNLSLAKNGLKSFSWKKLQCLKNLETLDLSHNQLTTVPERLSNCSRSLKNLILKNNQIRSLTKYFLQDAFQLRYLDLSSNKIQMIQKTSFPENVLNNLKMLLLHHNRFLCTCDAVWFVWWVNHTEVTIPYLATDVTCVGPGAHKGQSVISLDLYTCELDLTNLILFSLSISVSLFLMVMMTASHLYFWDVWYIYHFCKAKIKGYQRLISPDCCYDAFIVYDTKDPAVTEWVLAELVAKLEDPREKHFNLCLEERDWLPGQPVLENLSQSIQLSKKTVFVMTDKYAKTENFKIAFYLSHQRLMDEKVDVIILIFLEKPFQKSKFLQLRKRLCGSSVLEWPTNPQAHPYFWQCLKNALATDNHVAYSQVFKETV
The experiment is described as follows: Agonist activity at human TLR7 transfected in HEK cells assessed as NFkappaB induction after 24 hrs by specific secreted alkaline phosphatase gene assay. The class given is functional, cell-based, HEK293.

The nature of experiment [3]: Immunomodulatory activity in C57BL/6 mouse BMDC assessed as IL-1beta production at 30 uM after 3 days by FACS flow cytometric analysis (reference value: 26.2 +/- 3.7 pg/mL). The format is functional.
Experiment [4] in a line: Immunomodulatory activity in C57BL/6 mouse BMDC assessed as IL-12p40 production at 30 uM after 3 days by FACS flow cytometric analysis (reference value: 260.6 +/- 11.9 pg/mL). The class given is functional.
The target in experiment [5] is T2, Toll-like receptor 8 (Homo sapiens, UniProt Q9NR97).
T2 sequence (Q9NR97 whole entry): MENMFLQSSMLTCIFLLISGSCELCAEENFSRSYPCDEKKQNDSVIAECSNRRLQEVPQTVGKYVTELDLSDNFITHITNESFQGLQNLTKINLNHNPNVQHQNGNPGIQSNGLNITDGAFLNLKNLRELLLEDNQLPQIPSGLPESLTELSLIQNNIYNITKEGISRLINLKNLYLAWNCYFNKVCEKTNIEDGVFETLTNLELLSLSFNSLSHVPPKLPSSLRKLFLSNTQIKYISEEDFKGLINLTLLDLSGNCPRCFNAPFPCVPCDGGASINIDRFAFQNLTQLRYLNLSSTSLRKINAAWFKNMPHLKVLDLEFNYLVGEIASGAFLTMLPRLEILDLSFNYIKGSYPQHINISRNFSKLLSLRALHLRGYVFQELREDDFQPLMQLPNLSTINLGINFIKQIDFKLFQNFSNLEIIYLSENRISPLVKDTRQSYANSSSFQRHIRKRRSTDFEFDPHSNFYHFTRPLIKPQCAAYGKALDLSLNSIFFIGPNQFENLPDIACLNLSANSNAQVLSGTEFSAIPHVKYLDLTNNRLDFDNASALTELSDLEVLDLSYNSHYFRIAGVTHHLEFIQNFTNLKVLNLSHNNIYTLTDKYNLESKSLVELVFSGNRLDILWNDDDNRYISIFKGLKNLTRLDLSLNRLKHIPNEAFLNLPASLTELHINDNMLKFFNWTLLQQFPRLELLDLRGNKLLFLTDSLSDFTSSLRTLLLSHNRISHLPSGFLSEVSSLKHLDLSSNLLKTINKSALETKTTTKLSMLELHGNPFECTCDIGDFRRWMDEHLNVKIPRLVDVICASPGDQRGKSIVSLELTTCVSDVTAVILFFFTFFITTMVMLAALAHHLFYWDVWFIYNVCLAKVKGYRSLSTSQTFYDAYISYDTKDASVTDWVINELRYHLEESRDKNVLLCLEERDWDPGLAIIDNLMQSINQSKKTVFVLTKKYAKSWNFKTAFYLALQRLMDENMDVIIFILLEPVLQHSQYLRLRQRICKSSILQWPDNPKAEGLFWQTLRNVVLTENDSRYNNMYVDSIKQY
The experiment is described as follows: Agonist activity at human TLR8 transfected in HEK cells assessed as NFkappaB induction after 24 hrs by specific secreted alkaline phosphatase gene assay. The format is functional, cell-based, HEK293.

Experiment [6] in a line: Immunomodulatory activity in C57BL/6 mouse BMDC assessed as TNFalpha production at 30 uM after 3 days by FACS flow cytometric analysis (reference value: 91.3 +/- 34.5 pg/mL). The format is functional.
Experiment [7] is described as follows: Immunomodulatory activity in C57BL/6 mouse BMDC assessed as TNFalpha production at 30 uM after 3 days by FACS flow cytometric analysis relative to imiquimod. The format is functional.
Experiment [8] in a line: Immunomodulatory activity in C57BL/6 mouse BMDC assessed as IL-12p40 production at 30 uM after 3 days by FACS flow cytometric analysis relative to imiquimod. The class given is functional.

Consider `CC(C)(O)Cn1cnc2c(N)nc3ccccc3c21`, for which the Activity was determined as 60 pg/mL in experiment [1], 61 pg/mL in experiment [3], 839 pg/mL in experiment [4] and 2041 pg/mL in experiment [6]. For the same compound, the EC50 was 95 µM in experiment [2] and above 270 µM in experiment [5].
As to `CCCCc1nc2c(N)nc3cc(C(=O)OC)ccc3c2n1CC(C)(C)O`, the Activity amounted to 110 pg/mL in experiment [1], 893 pg/mL in experiment [3], 1286 pg/mL in experiment [4] and 1353 pg/mL in experiment [6]. In addition, the EC50 amounted to 1.2 µM in experiment [2] and 41.3 µM in experiment [5].
`COC(=O)c1ccc2c(c1)nc(N)c1ncn(CC(C)(C)O)c12`: the Activity stood at 94 pg/mL in experiment [1], 1144 pg/mL in experiment [3], 1773 pg/mL in experiment [4] and 1451 pg/mL in experiment [6]. In addition, the EC50 in experiment [2] and in experiment [5] was above 270 µM throughout. Moreover, the “fold change (FC)” value in experiment [7] and in experiment [8] was above 2 each time.
As to `CC(C)Cn1cnc2c(N)nc3ccccc3c21` [IMIQUIMOD], the Activity in experiment [1] amounted to 33 pg/mL; in experiment [3], 35 pg/mL; in experiment [4] it was 889 pg/mL; in experiment [6] it was 593 pg/mL. The EC50 in experiment [2] was 12.1 µM; in experiment [5] it was above 270 µM.
For `CCOCc1nc2c(N)nc3ccccc3c2n1CC(C)(C)O` [RESIQUIMOD], the Activity in experiment [1] turned out to be 72 pg/mL; in experiment [3] it was 38 pg/mL; in experiment [4], 1491 pg/mL; in experiment [6] it was 2134 pg/mL.
With `CCCCc1nc2c(N)nc3ccccc3c2n1CC(C)(C)O`, the Activity in experiment [1] came out at 181 pg/mL; in experiment [3] it was 73 pg/mL; in experiment [4], 864 pg/mL; in experiment [6] it was 1743 pg/mL.
